Values after ≈ are worked out from the molar mass of the structure shown.
What was measured:
[1] = test system: Staph. aur. 52; assay: MIC, serial dilution on BHI agar (inocula replicating device); assay type: cell-based; details: 18 hrs. at 37° C., read-out: Minimum Inhibitory Concentration (MIC)
Experimental: (§1) The procedure which is followed is the one recommended by the International Collaborative Study on Antibiotic Sensitivity Testing [Ericcson and Sherris, Acta. Pathologica et Microbiologia Scandinav, Supp. 217, Sections A and B: 64-68 (1971)], and employs brain heart infusion (BHI) agar and the inocula replicating device. Overnight growth tubes are diluted 100 fold for use as the standard inoculum (20,000-10,000 cells in approximately 0.002 ml. are placed on the agar surface; 20 ml. of BHI agar/dish). Twelve 2 fold dilutions of the test compound are employed, with initial concentration of the test drug being 200 mcg./ml. Single colonies are disregarded when reading plates after 18 hrs. at 37° C. The susceptibility (MIC) of the test organism is accepted as the lowest concentration of compound capable of producing complete inhibition of growth as judged by the naked eye. A comparison of the activity of 3"-epioleandomycin-Y 3",4"-carbonate and 4"-epioleandomycin-Y 3",4"-carbonate with that of parent oleandomycin-Y is recorded in the Table.

[2] = test system: Strep. pyog. 203; assay: as above; assay type: cell-based; details: 18 hrs. at 37° C., read-out: Minimum Inhibitory Concentration (MIC)
Experimental: as §1

[3] = test system: Staph. aur. 400; assay: as above; assay type: cell-based; details: 18 hrs. at 37° C., read-out: Minimum Inhibitory Concentration (MIC)
Experimental: as §1

[4] = test system: Bac. sub. 1; assay: as above; assay type: cell-based; details: 18 hrs. at 37° C., read-out: Minimum Inhibitory Concentration (MIC)
Experimental: as §1

[5] = test system: Staph. epi. 111; assay: as above; assay type: cell-based; details: 18 hrs. at 37° C., read-out: Minimum Inhibitory Concentration (MIC)
Experimental: as §1

[6] = test system: Staph. aur. 5; assay: as above; assay type: cell-based; details: 18 hrs. at 37° C., read-out: Minimum Inhibitory Concentration (MIC)
Experimental: as §1

[7] = test system: Strep. faec. 6; assay: as above; assay type: cell-based; details: 18 hrs. at 37° C., read-out: Minimum Inhibitory Concentration (MIC)
Experimental: as §1

[8] = test system: Strep. pneum. 2; assay: as above; assay type: cell-based; details: 18 hrs. at 37° C., read-out: Minimum Inhibitory Concentration (MIC)
Experimental: as §1

[9] = test system: bacteria; details: background statement on the byproduct; cited from earlier work
[10] = test system: Past. mult.; assay: MIC, serial dilution on BHI agar (inocula replicating device); assay type: cell-based; details: 18 hrs. at 37° C., read-out: Minimum Inhibitory Concentration (MIC)
Experimental: as §1

Compound C[C@@H]1[C@@H](O[C@@H]2O[C@H](C)C[C@H](N(C)C)[C@H]2O)[C@@H](C)C[C@@]2(CO2)C(=O)[C@H](C)[C@@H](O)[C@@H](C)[C@@H](C)OC(=O)[C@H](C)[C@H]1O[C@H]1C[C@H](O)[C@@H](O)[C@H](C)O1 [I, O-demethyloleandomycin] has an MIC [1] of 50 µg/mL (≈ 74.2 µM), an MIC [2] of 1.56 µg/mL (≈ 2.32 µM) and an MIC [3] of 12.5 µg/mL (≈ 18.6 µM). For the same compound, the MIC [4] was 6.25 µg/mL (≈ 9.28 µM), the MIC [5] was 6.25 µg/mL (≈ 9.28 µM) and the MIC [6] was 50 µg/mL (≈ 74.2 µM). For the same compound, the MIC [7] was 6.25 µg/mL (≈ 9.28 µM), the MIC [8] was 0.78 µg/mL (≈ 1.16 µM) and the “antibacterial activity (in words)” value [9] was “relatively low antibacterial activity”.

In the case of C[C@@H]1[C@@H](O[C@@H]2O[C@H](C)C[C@H](N(C)C)[C@H]2O)[C@@H](C)C[C@@]2(CO2)C(=O)[C@H](C)[C@@H](O)[C@@H](C)[C@@H](C)OC(=O)[C@H](C)[C@H]1O[C@H]1C[C@H]2OC(=O)O[C@H]2[C@H](C)O1 [IIa, 3"-epioleandomycin-Y 3",4"-carbonate], the MIC [1] was 3.12 µg/mL (≈ 4.46 µM), the MIC [2] was 3.12 µg/mL (≈ 4.46 µM) and the MIC [3] was 6.25 µg/mL (≈ 8.93 µM). For the same compound, the MIC [4] was 0.78 µg/mL (≈ 1.11 µM), the MIC [10] was 50 µg/mL (≈ 71.4 µM) and the MIC [5] was 1.56 µg/mL (≈ 2.23 µM). The MIC [6] was 3.12 µg/mL (≈ 4.46 µM), the MIC [7] was 3.12 µg/mL (≈ 4.46 µM) and the MIC [8] was 0.39 µg/mL (≈ 0.557 µM).

Work on C[C@@H]1[C@@H](O[C@@H]2O[C@H](C)C[C@H](N(C)C)[C@H]2O)[C@@H](C)C[C@@]2(CO2)C(=O)[C@H](C)[C@@H](O)[C@@H](C)[C@@H](C)OC(=O)[C@H](C)[C@H]1O[C@H]1C[C@@H]2OC(=O)O[C@@H]2[C@H](C)O1 [IIb, 4"-epioleandomycin-Y 3",4"-carbonate] yielded an MIC [1] of 12.5 µg/mL (≈ 17.9 µM), an MIC [2] of 3.12 µg/mL (≈ 4.46 µM) and an MIC [3] of 12.5 µg/mL (≈ 17.9 µM). It also gave an MIC [4] of 3.12 µg/mL (≈ 4.46 µM), an MIC [5] of 6.25 µg/mL (≈ 8.93 µM) and an MIC [6] of 12.5 µg/mL (≈ 17.9 µM). The MIC [7] was 12.5 µg/mL (≈ 17.9 µM) and the MIC [8] was 0.78 µg/mL (≈ 1.11 µM).

Source: patent publication US4316010A, “Cis-C3 "C4 "-carbonate derivatives of O-demethyloleandomycin and intermediates therefor” (Pfizer Inc., priority 1981, dated 1982)
